Source: patent US9102669B2, “Substituted piperidinyl-pyridazinyl derivatives useful as SCD 1 inhibitors” (Janssen Pharmaceutica NV, priority 2011, dated 2015)

Tests used:
[1] = 4 week Zucker fa/fa rat study, body weight; format: in vivo; conditions: Zucker fa/fa rats
Method: Male Zucker fa/fa rats were housed one rat per cage in a temperature-controlled room with 12-hour light/dark cycle. The rats were fed on regular rodent diet (Purina 5008) and allowed ad libitum access to water. The experiment was initiated at an age of 8-9 week, and at body weight of about 350 g. Test compound was prepared in 0.5% HPMC for dosing q.d at 1 mg/kg, 3 mg/kg and 10 mg/kg, as noted in the table of results below. Body weight, food intake and fed blood glucose were monitored weekly. On day 26, all rats were given with the last dose 1 hr prior to the necropsy.

[2] = 10-day diet-induced obese C57bl/6 mice study, body weight change; format: in vivo, mouse; set-up: unit not given here; conditions: DIO C57BL/6J mice, oral 30 mg/kg once a day, after 10 days of treatment
Method: Male DIO C57BL/6J mice from Taconic were maintained on high fat diet D12492 containing 60% kCal of mostly saturated fats (Research Diets Inc.) for 4 week from 6-week old. Test compounds were prepared in 0.5% hydroxypropyl methyl cellulose for oral dosing at 30 mg/kg once a day. After 10-days of treatment, body weight change was recorded.
Representative compounds of the present invention were tested according to the procedure as described above, with results as listed in Table 7, below. In the results presented below, * indicates a calculated p value <0.05 vs. vehicle-treated group.

Cn1cc(-c2ccc(N3CCC(N4CCc5ccc(F)cc54)CC3)nn2)cn1 [Compound #11, 6-fluoro-1-(1-(6-(1-methyl-1H-pyrazol-4-yl)pyridazin-3-yl)piperidin-4-yl)indoline]
Body Weight Day 1 ([1]; 1 mg/kg q.d.): 373 ± 7 grams
Body Weight Day 8 ([1]; 1 mg/kg q.d.): 404 ± 13 grams
Body Weight Day 15 ([1]; 1 mg/kg q.d.): 442 ± 12 grams
Body Weight Day 22 ([1]; 1 mg/kg q.d.): 482 ± 10 grams
Body Weight Day 26 ([1]; 1 mg/kg q.d.): 496 ± 10 grams
Body Weight Day 1 ([1]; 3 mg/kg q.d.): 372 ± 6 grams
Body Weight Day 8 ([1]; 3 mg/kg q.d.): 417 ± 7 grams
Body Weight Day 15 ([1]; 3 mg/kg q.d.): 452 ± 6 grams
Body Weight Day 22 ([1]; 3 mg/kg q.d.): 484 ± 6 grams
Body Weight Day 26 ([1]; 3 mg/kg q.d.): 498 ± 6 grams
Body Weight Day 1 ([1]; 10 mg/kg q.d.): 373 ± 5 grams
Body Weight Day 8 ([1]; 10 mg/kg q.d.): 402 ± 6 grams
Body Weight Day 15 ([1]; 10 mg/kg q.d.): 430 ± 7 grams
Body Weight Day 22 ([1]; 10 mg/kg q.d.): 445 ± 9 grams
Body Weight Day 26 ([1]; 10 mg/kg q.d.): 451 ± 9 grams
body weight change [2]: −2.1 ± 0.3 *
